Measurements taken from patent US20210030735A1 (Tesaro, Inc., priority 2018, published 2021).
Converted amounts (≈) assume the structure as drawn. Like-named read-outs stand apart in the source and are kept apart here.

How the values were obtained:
[1] = in vivo; conditions: tumor, 50 mg/kg
[2] = system: tumor models
[3] = system: platinum-sensitive recurrent epithelial ovarian, fallopian tube, or primary peritoneal cancer; conditions: for PFS Median: niraparib 300 mg QD; for HR, CFI / HR, TFST: niraparib versus placebo
From the text: All patients had received at least two prior platinum-containing regimens and were in response (complete or partial) to their most recent platinum-based regimen. Eligible patients were assigned to one of two cohorts based on the results of a germline BRCA mutation test. […] Randomization occurred within 8 weeks of the last dose of the most recent platinum-containing regimen. […] Clinic visits occurred each cycle (4 weeks ±3 days). […] Prior to unblinding of the study, tumors of patients randomized to the non-gBRCAmut cohort were tested for the presence of homologous recombination deficiency (HRD) using the Myriad myChoice® HRD test, which evaluates three independent biomarkers of tumor genome instability: loss of heterozygosity, telomeric allelic imbalance, and large-scale state transitions. Tumors with homologous recombination deficiencies and those with somatic BRCA mutations were defined as HRD positive (HRDpos). The primary efficacy analysis for PFS was prospectively defined and assessed for the gBRCAmut cohort. The primary efficacy analysis for PFS was prospectively defined and assessed for the non-gBRCAmut cohort with a hierarchical testing schema. In the first step, PFS was assessed in the group of patients with HRDpos tumors and if significant, PFS was assessed in the overall non-gBRCAmut cohort. Secondary efficacy endpoints included chemotherapy-free interval (CFI), time to first subsequent therapy (TFST), PFS after the first subsequent therapy (PFS2), time to second subsequent therapy (TSST) and OS (overall survival).

[4] = system: juvenile rats; conditions: rat, in vivo, 1 month
[5] = system: beagle dogs; conditions: dog, in vivo, 1 month
[6] = physchem
[7] = system: recurrent solid tumors that exhibit a BRCAness mutational signature; conditions: oral niraparib in combination with TSR-042, patients between 6 months and 18 years
[8] = drug substance
Protocol: The particle size analyzer can determine particle size using low-angle laser light scattering and calculates results in % volume based on equivalent spheres. Volume distributions for the D10, D50, D90, D4,3, and D3,2 can be determined. The suspension is added to the tank until the obscuration is in range, targeting a 10% obscuration. Measurements are taken once the obscuration remains consistent.
These batches were divided into sub-lots at various time intervals and each sub-lot was analyzed for content uniformity. The batches used are described in Table 12.

NC(=O)c1cccc2cn(-c3ccc([C@@H]4CCCNC4)cc3)nc12 [Niraparib, niraparib]
concentration at 6 h [1]: 4570 ng/mL
tumor regression ([2]; 50 mg/kg, daily dosing): tumor regression
tumor regression ([2]; dose of 75 mg/kg, same model): did not result in tumor regression
PFS Median ([3]; HRDpos group of the non-gBRCAmut cohort, N = 106): 12.9 months
Median CFI (chemotherapy-free interval) ([3]; gBRCAmut cohort): 22.8 months
Median TFST (time to first subsequent therapy) ([3]; gBRCAmut cohort): 21.0 months
PFS Median ([3]; gBRCAmut cohort, N = 138): 21.0 months
HR, CFI ([3]; gBRCAmut cohort): 0.26
HR, TFST ([3]; gBRCAmut cohort): 0.31
Median CFI (chemotherapy-free interval) ([3]; non-gBRCAmut cohort): 12.7 months
Median TFST (time to first subsequent therapy) ([3]; non-gBRCAmut cohort): 11.8 months
HR, CFI ([3]; non-gBRCAmut cohort): 0.50
HR, TFST ([3]; non-gBRCAmut cohort): 0.55
PFS Median ([3]; overall non-gBRCAmut cohort, N = 234): 9.3 months
no-observed-adverse-effect-level [4]: 10 mg/kg/day
no-observed-adverse-effect-level [5]: 6 mg/kg/day
pKa [6]: 9.95
solubility ([6]; aqueous media across the physiological pH range, aqueous buffer): 700 to 1100 µg/mL (≈ 2180 to 3430 µM)
treatment of pediatric cancer patients, result of the study [7]: can be used successfully

Cc1ccc(S(=O)(=O)O)cc1.NC(=O)c1cccc2cn(-c3ccc([C@@H]4CCCNC4)cc3)nc12 [niraparib tosylate monohydrate, 2-{4-[(3S)-piperidin-3-yl]phenyl}-2H-indazole 7-carboxamide 4-methylbenzenesulfonate hydrate (1:1:1)]
bulk density [8]: 0.34-0.45 g/cc
tapped density [8]: 0.53-0.66 g/cc
